Measurements taken from ChEMBL document CHEMBL1201862, “PubChem BioAssay data set” (2004).
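Test compounds were applied to cells in 96-well plates for 48 hours at 5 doses. GI50 is the concentration that inhibits growth by half.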 Calls of active or inactive are those of the source. Cut-off read from the data, not from the text of the source: active = GI50 up to about 1.1 µM and inactive = higher.

How the values were obtained:
Assay in all cases: growth of human tumour cells (NCI), 48 h
HCT-15 = system: HCT-15
ACHN = system: ACHN
IGROV-1 = system: IGROV-1
HCC 2998 = system: HCC 2998
SK-MEL-2 = system: SK-MEL-2
M14 = system: M14
MDA-MB-435 = system: MDA-MB-435
HCT-116 = system: HCT-116
RPMI-8226 = system: RPMI-8226
MCF7 = system: MCF7
NCI-H23 = system: NCI-H23
SN12C = system: SN12C
BT-549 = system: BT-549
RXF 393 = system: RXF 393
MDA-MB-231 = system: MDA-MB-231
CAKI-1 = system: CAKI-1
UO-31 = system: UO-31
NCI/ADR-RES = system: NCI/ADR-RES
NCI-H522 = system: NCI-H522

SMILES | GI50 (HCT-15) | GI50 (ACHN) | GI50 (IGROV-1) | GI50 (HCC 2998) | GI50 (SK-MEL-2) | GI50 (M14) | GI50 (MDA-MB-435) | GI50 (HCT-116) | GI50 (RPMI-8226) | GI50 (MCF7) | GI50 (NCI-H23) | GI50 (SN12C) | GI50 (BT-549) | GI50 (RXF 393) | GI50 (MDA-MB-231) | GI50 (CAKI-1) | GI50 (UO-31) | GI50 (NCI/ADR-RES) | GI50 (NCI-H522)
CC(=O)OCC1OC(n2c3c(c(-c4ccc(Cl)cc4)c(C#N)c2=S)C(=O)CC(C)(C)C3)C(OC(C)=O)C(OC(C)=O)C1OC(C)=O (configuration not stated) | 14.2 µM | 28.5 µM (inactive) | 40.7 µM (inactive) | 4.68 µM (inactive) | 23.4 µM (inactive) | 27.5 µM (inactive) | 12.7 µM (inactive) | 19.1 µM (inactive) | 4.59 µM (inactive) | 7.98 µM (inactive) | 28.8 µM (inactive) | 16 µM (inactive) | 3.14 µM (inactive) | 7.48 µM (inactive) | 15.2 µM (inactive) | 11.4 µM (inactive) | 39.2 µM (inactive) | 12 µM (inactive) | 4.94 µM (inactive)
O=C(O)CCC(=O)C(=O)O [ALPHA-KETOGLUTARIC ACID] | > 100 µM | > 100 µM (inactive) | > 100 µM (inactive) | > 100 µM (inactive) | > 100 µM (inactive) | > 100 µM (inactive) | > 100 µM (inactive) | > 100 µM (inactive) | > 100 µM (inactive) | > 100 µM (inactive) | > 100 µM (inactive) | > 100 µM (inactive) | > 100 µM (inactive) | > 100 µM (inactive) | > 100 µM (inactive) | > 100 µM (inactive) | > 100 µM (inactive) | > 100 µM (inactive) | > 100 µM (inactive)
COC(=O)C1=C(C(=O)OC)C2(C)CCC(=O)C1O2 (configuration not stated) | > 10 µM | > 10 µM (inactive) | > 10 µM (inactive) | > 10 µM (inactive) | > 10 µM (inactive) | > 10 µM (inactive) | > 10 µM (inactive) | > 10 µM (inactive) | > 10 µM (inactive) | > 10 µM (inactive) | > 10 µM (inactive) | > 10 µM (inactive) | > 10 µM (inactive) | > 10 µM (inactive) | > 10 µM (inactive) | > 10 µM (inactive) | > 10 µM (inactive) | > 10 µM (inactive) | –
C=C(CN)CO[Si](C)(C)C(C)(C)C | > 100 µM | > 100 µM (inactive) | > 100 µM (inactive) | > 100 µM (inactive) | > 100 µM (inactive) | > 100 µM (inactive) | > 100 µM (inactive) | > 100 µM (inactive) | > 100 µM (inactive) | > 100 µM (inactive) | > 100 µM (inactive) | > 100 µM (inactive) | > 100 µM (inactive) | – | > 100 µM (inactive) | > 100 µM (inactive) | > 100 µM (inactive) | > 100 µM (inactive) | > 100 µM (inactive)
Cn1c(=O)c2nc(CCCCc3nc4c(=O)n(C)c(=S)n(C)c4[nH]3)[nH]c2n(C)c1=S | > 100 µM | > 100 µM (inactive) | > 100 µM (inactive) | – | > 100 µM (inactive) | > 100 µM (inactive) | > 100 µM (inactive) | > 100 µM (inactive) | > 100 µM (inactive) | > 100 µM (inactive) | > 100 µM (inactive) | > 100 µM (inactive) | > 100 µM (inactive) | > 100 µM (inactive) | > 100 µM (inactive) | > 100 µM (inactive) | > 100 µM (inactive) | > 100 µM (inactive) | > 100 µM (inactive)
O=c1[nH]c(=O)n(C2OC(CO)C(O)C2O)c2ncc(-c3ccc(-c4ccccc4)cc3)nc12 (configuration not stated) | > 20 µM | > 20 µM (inactive) | > 20 µM (inactive) | > 20 µM (inactive) | > 20 µM (inactive) | – | > 20 µM (inactive) | > 20 µM (inactive) | > 20 µM (inactive) | > 20 µM (inactive) | > 20 µM (inactive) | > 20 µM (inactive) | > 20 µM (inactive) | > 20 µM (inactive) | > 20 µM (inactive) | > 20 µM (inactive) | > 20 µM (inactive) | > 20 µM (inactive) | > 20 µM (inactive)
CC1OC(OC2C(O)COC(OC3C(C)OC(OC4C(OC(=O)[C@]56CCC(C)(C)C[C@@H]5C5=CCC7[C@@]8(C)C[C@H](O)[C@H](OC9OC(CO)C(O)C(OC%10OC(CO)C(O)C(O)C%10O)C9O)[C@@](C)(CO)[C@@H]8CC[C@@]7(C)[C@]5(C)CC6)OCC(O)C4O)C(O)C3OC3OCC(O)(CO)C3O)C2O)C(O)C(O)C1O (some centres not stated) | 7.71 µM | 9.68 µM (inactive) | – | 8.09 µM (inactive) | – | 6.15 µM (inactive) | 11.5 µM (inactive) | 11.2 µM (inactive) | 13.6 µM (inactive) | 12.4 µM (inactive) | 5.87 µM (inactive) | 3.66 µM (inactive) | 5.19 µM (inactive) | 7.67 µM (inactive) | 8.05 µM (inactive) | 3.98 µM (inactive) | 3.56 µM (inactive) | 7.35 µM (inactive) | 7.96 µM (inactive)
